Experimental data reported in patent publication US11779561B2, “Compounds and pharmaceutical uses thereof” (priority 2020, dated 2023).
Several values for one entry are separate records, joined by “and”; a condition that tells them apart may be missing. Equal values may be shown once.

Experiments:
SARS-CoV-2 3CLPro = SARS-CoV-2 3CLPro (Severe acute respiratory syndrome coronavirus 2, UniProt P0DTD1); test: Native-PAGE binding with SARS-CoV-2 viral 3CLPro (Example 8); conditions: 62.5-1000 μM samples mixed with 40 μM 3CLPro, 4° C., 3 hours
2019-nCoV 3CLPro = 2019-nCoV 3CLPro (Severe acute respiratory syndrome coronavirus 2, UniProt P0DTD1); test: 2019-nCoV 3CLPro proteolytic activity, fluorogenic substrate, samples at 3 μM (Example 4); format: biochemical; conditions: estimated from single concentration 3 μM; read-out: approximately half maximal inhibition (IC50) at the concentration
3CLPro = 3CLPro (Severe acute respiratory syndrome coronavirus 2, UniProt P0DTD1); conditions: cited from earlier work; for IC50: read-out: IC50 (inhibition of 3CLPro), summary of Table 3
SARS-CoV-2 = SARS-CoV-2 virucidal assay in Vero E6 cells (qPCR of viral genome); format: cell-based; conditions: Vero E6, MOI=0.01, 24 h

Row | Structure (SMILES) | binding to SARS-CoV-2 3CLPro by native-PAGE (mobility shift) (SARS-CoV-2 3CLPro) | IC50 (3CLPro) [µM] | other results
1 | O=C(OC[C@H]1O[C@@H](OC(=O)c2cc(O)c(O)c(OC(=O)c3cc(O)c(O)c(O)c3)c2)[C@H](OC(=O)c2cc(O)c(O)c(OC(=O)c3cc(O)c(O)c(O)c3)c2)[C@@H](OC(=O)c2cc(O)c(O)c(OC(=O)c3cc(O)c(O)c(O)c3)c2)[C@@H]1OC(=O)c1cc(O)c(O)c(OC(=O)c2cc(O)c(O)c(O)c2)c1)c1cc(O)c(O)c(OC(=O)c2cc(O)c(O)c(O)c2)c1 [Sample 4, (2S,3R,4S,5R,6R)-3,4,5-tris(3,4-dihydroxy-5-(3,4,5-trihydroxybenzoyloxy)benzoyloxy)-6-((3,4-dihydroxy-5-(3,4,5-trihydroxybenzoyloxy)benzoyloxy)methyl)oxan-2-yl 3,4-dihydroxy-5-(3,4,5-trihydroxybenzoyloxy)benzoate] | significant binding | – | –
2 | O=C(OC[C@H]1O[C@H](OC(=O)c2cc(O)c(O)c(O)c2)[C@H](OC(=O)c2cc(O)c(O)c(O)c2)[C@@H](OC(=O)c2cc(O)c(O)c(O)c2)[C@@H]1OC(=O)c1cc(O)c(O)c(O)c1)c1cc(O)c(O)c(O)c1 [Sample 1] | – | – | potency estimated from few doses (2019-nCoV 3CLPro): ~3 µM
3 | CCC[C@@]1(CCc2ccccc2)CC(O)=C([C@H](CC)c2cccc(NS(=O)(=O)c3ccc(C(F)(F)F)cn3)c2)C(=O)O1 [Tipranavir] | – | > 100 | –
4 | CCC(CC)COC(=O)[C@H](C)N[P@](=O)(OC[C@H]1O[C@@](C#N)(c2ccc3c(N)ncnn23)[C@H](O)[C@@H]1O)Oc1ccccc1 [Remdesivir] | – | – | EC99 (SARS-CoV-2; cell layer): 15 µM and 15.000 µM; EC99 (SARS-CoV-2; supernatant): 15 µM and 15.000 µM
5 | O=C(O)c1cc(O)c(O)c(O)c1 [GA, gallic acid] | no significant binding | – | –
6 | O=C(OC[C@H]1O[C@@H](OC(=O)c2cc(O)c(O)c(O)c2)[C@H](OC(=O)c2cc(O)c(O)c(O)c2)[C@@H](OC(=O)c2cc(O)c(O)c(O)c2)[C@@H]1OC(=O)c1cc(O)c(O)c(O)c1)c1cc(O)c(O)c(O)c1 [Sample 2, (2S,3R,4S,5R,6R)-3,4,5-tris(3,4,5-trihydroxybenzoyloxy)-6-((3,4,5-trihydroxybenzoyloxy)methyl)oxan-2-yl 3,4,5-trihydroxybenzoate] | – | – | potency estimated from few doses (2019-nCoV 3CLPro): ~3 µM
7 | O=C(OC[C@H]1O[C@@H](OC(=O)c2cc(O)c(O)c(OC(=O)c3cc(O)c(O)c(OC(=O)c4cc(O)c(O)c(O)c4)c3)c2)[C@H](OC(=O)c2cc(O)c(O)c(OC(=O)c3cc(O)c(O)c(OC(=O)c4cc(O)c(O)c(O)c4)c3)c2)[C@@H](OC(=O)c2cc(O)c(O)c(OC(=O)c3cc(O)c(O)c(OC(=O)c4cc(O)c(O)c(O)c4)c3)c2)[C@@H]1OC(=O)c1cc(O)c(O)c(OC(=O)c2cc(O)c(O)c(OC(=O)c3cc(O)c(O)c(O)c3)c2)c1)c1cc(O)c(O)c(OC(=O)c2cc(O)c(O)c(OC(=O)c3cc(O)c(O)c(O)c3)c2)c1 [Sample 6, (2S,3R,4S,5R,6R)-6-(((3-((3,4-dihydroxy-5-((3,4,5-trihydroxybenzoyl)oxy)benzoyl)oxy)-4,5-dihydroxybenzoyl)oxy)methyl)tetrahydro-2H-pyran-2,3,4,5-tetrayl tetrakis(3-((3,4-dihydroxy-5-((3,4,5-trihydroxybenzoyl)oxy)benzoyl)oxy)-4,5-dihydroxybenzoate)] | significant binding | – | –
8 | CC(C)(C)NC(=O)[C@@H]1C[C@@H]2CCCC[C@@H]2CN1C[C@@H](O)[C@H](Cc1ccccc1)NC(=O)[C@H](CC(N)=O)NC(=O)c1ccc2ccccc2n1 [Saquinavir] | – | > 100 | –
9 | Cc1cccc(C)c1OCC(=O)N[C@@H](Cc1ccccc1)[C@@H](O)C[C@H](Cc1ccccc1)NC(=O)[C@H](C(C)C)N1CCCNC1=O [Lopinavir] | – | > 100 | IC50 of the 3CLPro (result in words) (3CLPro; 20 μM, Ma et al., 2020): 20 μM, failed to inhibit
10 | Cc1c(O)cccc1C(=O)N[C@@H](CSc1ccccc1)[C@H](O)CN1C[C@H]2CCCC[C@H]2C[C@H]1C(=O)NC(C)(C)C [Nelfinavir] | – | > 100 | –
